Data set [1] concerns the target T1, hmGluR5a receptor (Homo sapiens, UniProt P41594).
T1 construct: expressed in transfected cells; host or cells: mouse fibroblast Ltk cells (hmGluR5a/L38-20 cell line)
Kind of data set: Calcium flux assay. It is filed as cell-based. The conditions noted are these: hmGluR5a/L38-20 cells (mouse fibroblast Ltk), fura-2, glutamate 10 μM (EC80); read-out: Ca^2+ Flux. As to the method: The activity of compounds was examined against the hmGluR5a receptor stably expressed in mouse fibroblast Ltk cells (the hmGluR5a/L38-20 cell line). See generally Daggett et al., Neuropharmacology 34:871–886 (1995). Receptor activity was detected by changes in intracellular calcium ([Ca^++]i) measured using the fluorescent calcium-sensitive dye, fura-2. hmGluR5a/L38-20 cells were plated onto 96-well plates, and loaded with 3 μM fura-2 for 1 h. Unincorporated dye was washed from the cells, and the cell plate was transferred to a custom-built 96-channel fluorimeter (SIBIA-SAIC, La Jolla, Calif.) which is integrated into a fully automated plate handling and liquid delivery system. Cells were excited at 350 and 385 nm with a xenon source combined with optical filters. Emitted light was collected from the sample through a dichroic mirror and a 510-nm interference filter and directed into a cooled CCD camera (Princeton Instruments). Image pairs were captured approximately every 1 s, and ratio images were generated after background subtraction. After a basal reading of 20 s, an EC80 concentration of glutamate (10 μM) was added to the well, and the response evaluated for another 60 s. The glutamate-evoked increase in [Ca^++]i in the presence of the screening compound was compared to the response of glutamate alone (the positive control).
(A change in cytosolic calcium serves as a functional read-out for many receptors and channels.)

Data set [2] addresses T2, hmGluR5 (Homo sapiens, UniProt P41594).
T2 construct: expressed in transfected cells; host or cells: mouse fibroblast Ltk cells (hmGluR5/L38-20 cells)
Kind of data set: Phosphatidylinositol hydrolysis (IP1) assay. Format: cell-based. The conditions noted are these: hmGluR5/L38-20 cells (mouse fibroblast Ltk), [3H]-inositol, 10 μM glutamate, 1 hour; read-out: PI Hydrolysis. The procedure: Inositol phophate assays were performed as described by Berridge et al. (1982) (Berridge et al, (1982) Biochem. J. 206:587–5950; and Nakajima et al., J. Biol. Chem. 267:2437–2442 (1992)) with slight modifications. Mouse fibroblast Ltk cells expressing hmGluR5 (hmGluR5/L38-20 cells) were seeded in 24-well plates at a density of 8×10^5 cells/well. One μCi of [^3H]-inositol (Amersham PT6-271; Arlington Heights, Ill.; specific activity=17.7 Ci/mmol) was added to each well and incubated for 16 h at 37° C. Cells were washed twice and incubated for 45 min in 0.5 ml of standard Hepes buffered saline buffer (HBS; 125 mM NaCl, 5 mM KCl, 0.62 mM MgSO4, 1.8 mM CaCl2, 20 mM HEPES, 6 mM Glucose, pH to 7.4). The cells were washed with HBS containing 10 mM LiCl, and 400 μl buffer added to each well. Cells were incubated at 37° C. for 20 min. For testing, 50 μl of 10X compounds used in the practice of the invention (made in HBS/LiCl (100 mM)) was added and incubated for 10 minutes. Cells were activated by the addition of 10 μM glutamate, and the plates left for 1 hour at 37° C.
The incubations were terminated by the addition of 1 ml ice-cold methanol to each well. In order to isolate inositol phosphates (IPs), the cells were scraped from wells, and placed in numbered glass test tubes. One ml of chloroform was added to each tube, the tubes were mixed, and the phases separated by centrifugation. IPs were separated on Dowex anion exchange columns (AG 1-X8 100–200 mesh formate form). The upper aqueous layer (750 ul) was added to the Dowex columns, and the columns eluted with 3 ml of distilled water. The eluents were discarded, and the columns were washed with 10 mls of 60 mM ammonium formate/5 mM Borax, which was also discarded as waste. Finally the columns were eluted with 4 ml of 800 mM ammonium formate/0.1 M formic acid, and the samples collected in scintillation vials. Scintillant was added to each vial, and the vials shaken, and counted in a scintillation counter after 2 hours. Phosphatidylinositol hydrolysis in cells treated with test compounds was compared to phosphatidylinositol hydrolysis in cells treated with control and the results are shown in Table 1.

In data set [3] the test system is male Sprague-Dawley rats, CFA-inflamed hind paw. Kind of data set: Analgesic animal model (CFA model). It is filed as in vivo. Details: key: +++: high analgesic efficacy. The conditions noted are these: rat, 240 μmol/kg intraperitoneal, evaluated one to 24 hours post administration. The procedure:
Compounds that modulate receptor-mediated analgesic responses wer tested in an animal model. Robust inflammation was induced by the injection of complete Freund's adjuvant (CFA, 10 mg/ml) subcutaneously into the hind paw of male Sprague-Dawley rats (150–175 g). The inflammatory response to CFA began approximately 12-hrs post-CFA injection and persisted for several days following inoculation. The inflamed hind paw became sensitive to noxious (paw pinch, plantar test) or innocuous (cold plate, Von Frey filaments) stimuli compared to the contralateral hind paw. Test compounds (240 μmol/kg) were administered via intraperitoneal injection. The analgesic activity of compounds was evaluated one to 24-hours post administration by assessing (1) the duration of analgesic effect; (2) threshold to elicit response; and (3) time from painful stimulus to response. […] For each group of animals, responses following drug administration were compared to responses prior to drug administration.

Data set [4] is described as follows: Assessment of salt forms (solubility, hygroscopicity). Format: physicochemical. The note with it: salt form. As to the method: Various salt forms of 2-(phenylethynyl)-1,3-thiazole were prepared, and their solubility, hygroscopicity, and physical state were assessed. The compound 2-phenylethynl-1,3-thiazole was prepared (see Example 8) as well as hydrochloric acid, fumaric acid, methylsulfonic acid and toluene sulfonic acid salt forms of the compound. The hydrochloric acid salt form of 2-(phenylethynyl)-1,3-thiazole is an oil. A fumaric acid salt form was not obtained by preparative steps including trituration with diethylether. Preparation of the methylsulfonate form results in a semi solid, hygroscopic material. These salt forms are typically unsuitable for certain pharmaceutical formulations, such as for tablets, capsules, and the like. In contrast to the salt forms of 2-(phenylethynyl)-1,3-thiazole, described previously, the tosylate salt form (i.e., the toluene sulfonic acid salt) is a solid having a melting point of about 129 up to 131° C. and is non-hygroscopic. Therefore, this form is presently preferred for pharmaceutical formulations of tablets, capsules, and the like.

Where a name gives a salt, the structure may show the parent alone. Where only a bound is given, the exact number is not on record here.

T1 sequence (P41594 21-1180 isoform P41594-2 limits assumed): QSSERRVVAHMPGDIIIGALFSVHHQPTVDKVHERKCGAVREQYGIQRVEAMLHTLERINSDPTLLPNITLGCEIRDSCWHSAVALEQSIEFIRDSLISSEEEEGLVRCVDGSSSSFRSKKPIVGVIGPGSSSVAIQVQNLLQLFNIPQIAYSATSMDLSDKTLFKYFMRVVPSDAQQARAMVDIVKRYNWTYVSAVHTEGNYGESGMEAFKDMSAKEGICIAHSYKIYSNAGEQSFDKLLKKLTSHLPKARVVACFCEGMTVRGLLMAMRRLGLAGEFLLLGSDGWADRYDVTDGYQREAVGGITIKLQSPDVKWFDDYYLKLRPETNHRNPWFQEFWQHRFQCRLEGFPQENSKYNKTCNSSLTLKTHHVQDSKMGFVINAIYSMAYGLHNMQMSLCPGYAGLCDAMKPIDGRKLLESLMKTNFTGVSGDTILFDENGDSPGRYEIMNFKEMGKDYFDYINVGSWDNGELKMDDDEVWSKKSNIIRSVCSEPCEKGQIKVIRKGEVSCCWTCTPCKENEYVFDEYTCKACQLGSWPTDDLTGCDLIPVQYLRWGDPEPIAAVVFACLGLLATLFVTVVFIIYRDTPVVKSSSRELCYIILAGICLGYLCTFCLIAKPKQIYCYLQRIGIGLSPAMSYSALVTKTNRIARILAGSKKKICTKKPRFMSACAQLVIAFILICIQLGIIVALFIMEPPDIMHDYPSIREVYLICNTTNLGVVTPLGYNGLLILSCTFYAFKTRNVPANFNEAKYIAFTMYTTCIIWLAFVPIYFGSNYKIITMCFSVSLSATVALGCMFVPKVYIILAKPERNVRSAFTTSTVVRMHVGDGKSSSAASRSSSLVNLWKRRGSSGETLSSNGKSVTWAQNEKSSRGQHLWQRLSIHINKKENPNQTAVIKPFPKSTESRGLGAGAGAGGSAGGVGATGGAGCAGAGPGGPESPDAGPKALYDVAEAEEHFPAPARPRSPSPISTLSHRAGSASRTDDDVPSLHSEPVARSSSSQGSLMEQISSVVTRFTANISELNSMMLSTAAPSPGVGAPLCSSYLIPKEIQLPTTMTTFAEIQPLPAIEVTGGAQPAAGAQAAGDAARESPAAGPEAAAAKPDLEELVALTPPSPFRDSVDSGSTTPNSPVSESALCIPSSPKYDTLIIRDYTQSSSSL
T2 sequence (P41594 21-1180 isoform P41594-2 limits assumed): as above

`Cc1csc(C=Cc2ccccc2)n1` (mixture of isomers) [Example 2, 4-Methyl-2-[2-phenylethenyl]-1,3-thiazole]: the IC50 fell in the range of 0.01 to 0.1 µM in data set [1] and 10 to 100 µM in data set [2].

For the compound `Cc1coc(/C=C/c2ccccc2)n1` [Example 1, 4-Methyl-2-[(E)-2-phenylethenyl]-1,3-oxazole], the results for the IC50 in data set [1] and in data set [2] were 1 to 10 µM and 10 to 100 µM, respectively.

In the case of `Cc1nc(/C=C/c2ccccc2)cs1` [Example 3, 2-Methyl-4-[(E)-2-phenylethenyl]-1,3-thiazole], the figures for the IC50 in data set [1] and in data set [2] were 0.1 to 1 µM and 1 to 10 µM, respectively.

Turning to `Cc1nc(C#Cc2ccccc2)cs1` [Example 4, 2-Methyl-4-(phenylethynyl)-1,3-thiazole, p-toluenesulfonic acid salt], the IC50 in data set [1] was ≤ 0.01 µM; in data set [2], ≤ 0.1 µM.

Consider `Nc1nc(C#Cc2ccccc2)cs1` [Example 5, 4-(Phenylethynyl)-1,3-thiazol-2-amine, p-toluenesulfonic acid salt], for which the figures for the IC50 in data set [1] and in data set [2] were 0.01 to 0.1 µM and 0.1 to 1 µM, respectively.

`Cc1ncsc1C#Cc1ccccc1` [Example 6, 4-Methyl-5-(phenylethynyl)-1,3-thiazole]: the IC50 lay within 0.01 to 0.1 µM in data set [1] and 10 to 100 µM in data set [2].

Consider `Cc1ncsc1C#Cc1ccccc1F` [Example 7, 5-[(2-Fluorophenyl)ethynyl]-4-methyl-1,3-thiazole], for which the IC50 was 0.1 to 1 µM in data set [1] and > 100 µM in data set [2].

For the compound `C(#Cc1nccs1)c1ccccc1.Cc1ccc(S(=O)(=O)O)cc1` [Example 8, 2-(Phenylethynyl)-1,3-thiazole, p-toluenesulfonic acid salt], the IC50 in data set [1] is ≤ 0.01 µM. Besides, in data set [2], the IC50 lay within 0.1 to 1 µM. For the same compound, the “CFA Model (analgesic efficacy)” value in data set [3] is listed as “+++”. Moreover, in data set [4], the hygroscopicity result is recorded as “non-hygroscopic” and the “solubility in aqueous medium” value is given as “soluble in aqueous medium”.

In general, melting point refers to the temperature, or range, at which the solid turns liquid. In the case of `Brc1csc(C#Cc2ccccc2)n1` [Example 9, 4-bromo-2-(phenylethynyl)-1,3-thiazole], the melting point was in the range of 79 to 82 °C. Moreover, in data set [1], the IC50 lay in the range of 0.01 to 0.1 µM. For the same compound, the IC50 in data set [2] was 1 to 10 µM.

With `Cc1cnc(C#Cc2ccccc2)s1` [Example 10, 5-Methyl-2-(phenylethynyl)-1,3-thiazole], the melting point was 82 to 83 °C. Also, in data set [1], the IC50 is > 10 µM. Further, in data set [2], the IC50 was > 100 µM.

Consider `Cc1cccc(C#Cc2nccs2)c1` [Example 11, 2-[(3-methylphenyl)ethynyl]-1,3-thiazole], for which the IC50 in data set [1] fell in the range of 0.01 to 0.1 µM; in data set [2], 0.1 to 1 µM.

`Fc1ccc(C#Cc2nccs2)cc1` [Example 12, 2-[(4-Fluorophenyl)ethynyl]-1,3-thiazole] registered a melting point of 78 to 79 °C. Moreover, the IC50 in data set [1] lay in the range of 0.1 to 1 µM. Besides, in data set [2], the IC50 lay within 1 to 10 µM.

Take `Fc1ccccc1C#Cc1nccs1` [Example 13, 2-[(2-Fluorophenyl)ethynyl]-1,3-thiazole]: the IC50 in data set [1] is 0.01 to 0.1 µM; in data set [2], 0.1 to 1 µM.

In turn, `Cc1nc(C#Cc2ccccc2)sc1C` [Example 14, 4,5-Dimethyl-2-(phenylethynyl)-1,3-thiazole] came in with a melting point of 55 to 60 °C. In data set [1], the IC50 is ≤ 0.01 µM. In data set [2], the IC50 was in the range of 1 to 10 µM.

Compound `Cc1nc(/C=C/c2ccccc2)no1` [Example 15, 5-Methyl-3-[(E)-2-phenylethenyl]-1,2,4-oxadiazole] had a melting point of 166 to 168 °C. Moreover, in data set [1], the IC50 is > 10 µM. Also, in data set [2], the IC50 was > 100 µM.

`C(=C\c1ncno1)/c1ccccc1` [Example 16, 5-[(E)-2-phenylethenyl]-1,2,4-oxadiazole] registered a melting point of 53 to 55 °C. Besides, in data set [1], the IC50 was > 10 µM. In addition, the IC50 in data set [2] is > 100 µM.

In turn, `Cn1ncnc1/C=C/c1ccccc1` [Example 17, 1-Methyl-5-[(E)-2-phenylethenyl]-1H-1,2,4-triazole] showed a melting point of 67 to 70 °C. The IC50 in data set [1] is > 10 µM. Moreover, in data set [2], the IC50 was > 100 µM.

Compound `Cc1n[nH]c(/C=C/c2ccccc2)n1` [Example 18, 3-Methyl-5-[(E)-2-phenylethenyl]-1H-1,2,4-triazole] returned a melting point of 131 to 134 °C. Further, the IC50 in data set [1] is > 10 µM. For the same compound, the IC50 in data set [2] was > 100 µM.

With `CCOC(=O)c1nc(/C=C/c2ccccc2)ns1` [Example 19, Ethyl 3-[(E)-2-phenylethenyl]-1,2,4-thiadiazole-5-carboxylate], the melting point lay within 79 to 80 °C. Further, the IC50 in data set [1] lay in the range of 0.1 to 1 µM. Besides, the IC50 in data set [2] lay in the range of 10 to 100 µM.

On to `OCc1nc(/C=C/c2ccccc2)ns1` [Example 20, {3-[(E)-2-phenylethenyl]-1,2,4-thiadiazol-5-yl}methanol], for which the melting point fell in the range of 119 to 120 °C. For the same compound, in data set [1], the IC50 lay in the range of 1 to 10 µM. The IC50 in data set [2] was > 100 µM.

Consider `Cc1ccc(C#CC2=CCCCC2)s1` [Example 21, 2-(1-Cyclohexen-1-ylethynyl)-5-methylthiophene], for which the IC50 was > 10 µM in data set [1] and > 100 µM in data set [2].

Regarding `C(#Cc1nccs1)c1ccccc1` [methylsulfonate form, 2-(phenylethynyl)-1,3-thiazole], in data set [4], the hygroscopicity entry is “hygroscopic”.

(Values after patent publication US6956049B1, “Methods of modulating processes mediated by excitatory amino acid receptors” (Merck & Co., Inc., priority 1999, dated 2005).)
